Experimental data: PMC5762315, “Inhibition of polo-like kinase 4 (PLK4): a new therapeutic option for rhabdoid tumors and pediatric medulloblastoma” (Oncotarget, 2017)
“And” between values parts separate entries of the source, which are not always exact repeats. Identical values can stand only once.

Key:
Assay in all cases: biochemical
Format in all cases: biochemical
various kinases [1] = biological target: various kinases (Homo sapiens, UniProt P49674); settings: CSNK1E (CK1 epsilon)
various kinases [2] = biological target: various kinases (Homo sapiens, UniProt Q8IY84); settings: NIM1K
various kinases (Homo sapiens, UniProt Q8IY84), sequence (Q8IY84 whole entry): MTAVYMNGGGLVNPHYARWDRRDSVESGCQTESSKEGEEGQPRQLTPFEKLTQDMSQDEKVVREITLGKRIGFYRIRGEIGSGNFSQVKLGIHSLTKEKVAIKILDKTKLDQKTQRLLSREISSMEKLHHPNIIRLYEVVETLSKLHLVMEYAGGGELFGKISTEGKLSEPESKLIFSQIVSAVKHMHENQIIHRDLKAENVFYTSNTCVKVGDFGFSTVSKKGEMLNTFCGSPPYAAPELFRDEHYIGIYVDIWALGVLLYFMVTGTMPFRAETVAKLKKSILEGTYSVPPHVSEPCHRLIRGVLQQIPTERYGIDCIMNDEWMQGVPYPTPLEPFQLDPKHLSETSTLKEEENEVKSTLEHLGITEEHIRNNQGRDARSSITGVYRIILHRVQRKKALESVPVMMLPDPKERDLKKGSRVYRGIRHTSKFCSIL

various kinases [3] = biological target: various kinases (Homo sapiens, UniProt O95819); settings: MAP4K4 (HGK)
various kinases [4] = biological target: various kinases (Homo sapiens, UniProt Q56UN5); settings: MAP3K19 (YSK4)
various kinases (Homo sapiens, UniProt Q56UN5), sequence (Q56UN5 whole entry): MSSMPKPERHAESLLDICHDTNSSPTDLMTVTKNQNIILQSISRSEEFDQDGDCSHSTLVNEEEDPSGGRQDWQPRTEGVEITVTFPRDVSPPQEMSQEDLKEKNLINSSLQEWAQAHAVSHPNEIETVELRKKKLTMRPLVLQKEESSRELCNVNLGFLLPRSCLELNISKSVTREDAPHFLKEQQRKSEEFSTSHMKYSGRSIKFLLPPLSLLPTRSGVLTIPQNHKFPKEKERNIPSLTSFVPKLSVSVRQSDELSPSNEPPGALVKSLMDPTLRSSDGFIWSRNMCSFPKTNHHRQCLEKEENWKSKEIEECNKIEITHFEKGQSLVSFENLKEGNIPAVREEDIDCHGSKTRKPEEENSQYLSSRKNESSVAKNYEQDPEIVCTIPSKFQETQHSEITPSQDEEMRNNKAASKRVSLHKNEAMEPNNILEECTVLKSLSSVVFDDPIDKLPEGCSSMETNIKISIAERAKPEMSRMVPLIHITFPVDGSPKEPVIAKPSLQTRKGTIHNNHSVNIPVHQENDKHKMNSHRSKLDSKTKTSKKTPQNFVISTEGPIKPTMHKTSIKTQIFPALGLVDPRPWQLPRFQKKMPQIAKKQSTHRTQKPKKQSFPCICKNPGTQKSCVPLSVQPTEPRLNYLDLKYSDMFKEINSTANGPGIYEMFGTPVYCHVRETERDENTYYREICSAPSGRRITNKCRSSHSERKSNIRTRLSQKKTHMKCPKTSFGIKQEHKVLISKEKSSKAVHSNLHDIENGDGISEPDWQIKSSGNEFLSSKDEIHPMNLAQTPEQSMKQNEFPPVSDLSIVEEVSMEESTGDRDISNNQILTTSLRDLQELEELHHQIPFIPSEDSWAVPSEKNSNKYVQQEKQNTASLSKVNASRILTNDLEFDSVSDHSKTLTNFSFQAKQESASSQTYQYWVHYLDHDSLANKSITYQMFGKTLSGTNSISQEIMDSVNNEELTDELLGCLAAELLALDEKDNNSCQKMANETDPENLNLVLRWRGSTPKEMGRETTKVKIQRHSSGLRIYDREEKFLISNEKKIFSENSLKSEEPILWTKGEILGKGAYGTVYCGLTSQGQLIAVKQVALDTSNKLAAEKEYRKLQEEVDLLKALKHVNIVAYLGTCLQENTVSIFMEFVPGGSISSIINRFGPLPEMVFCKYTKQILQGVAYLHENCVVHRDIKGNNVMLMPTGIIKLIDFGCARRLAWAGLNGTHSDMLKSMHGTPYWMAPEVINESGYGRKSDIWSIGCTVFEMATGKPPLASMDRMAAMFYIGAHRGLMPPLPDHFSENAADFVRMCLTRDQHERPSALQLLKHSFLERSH

various kinases [5] = biological target: various kinases (Homo sapiens, UniProt P00533, G719S); settings: EGFR (ErbB1) G719S
various kinases [6] = biological target: various kinases (Homo sapiens, UniProt O75676); settings: kinase RPS6KA4 (MSK2); ZLYTE
various kinases (Homo sapiens, UniProt O75676), sequence (O75676 whole entry): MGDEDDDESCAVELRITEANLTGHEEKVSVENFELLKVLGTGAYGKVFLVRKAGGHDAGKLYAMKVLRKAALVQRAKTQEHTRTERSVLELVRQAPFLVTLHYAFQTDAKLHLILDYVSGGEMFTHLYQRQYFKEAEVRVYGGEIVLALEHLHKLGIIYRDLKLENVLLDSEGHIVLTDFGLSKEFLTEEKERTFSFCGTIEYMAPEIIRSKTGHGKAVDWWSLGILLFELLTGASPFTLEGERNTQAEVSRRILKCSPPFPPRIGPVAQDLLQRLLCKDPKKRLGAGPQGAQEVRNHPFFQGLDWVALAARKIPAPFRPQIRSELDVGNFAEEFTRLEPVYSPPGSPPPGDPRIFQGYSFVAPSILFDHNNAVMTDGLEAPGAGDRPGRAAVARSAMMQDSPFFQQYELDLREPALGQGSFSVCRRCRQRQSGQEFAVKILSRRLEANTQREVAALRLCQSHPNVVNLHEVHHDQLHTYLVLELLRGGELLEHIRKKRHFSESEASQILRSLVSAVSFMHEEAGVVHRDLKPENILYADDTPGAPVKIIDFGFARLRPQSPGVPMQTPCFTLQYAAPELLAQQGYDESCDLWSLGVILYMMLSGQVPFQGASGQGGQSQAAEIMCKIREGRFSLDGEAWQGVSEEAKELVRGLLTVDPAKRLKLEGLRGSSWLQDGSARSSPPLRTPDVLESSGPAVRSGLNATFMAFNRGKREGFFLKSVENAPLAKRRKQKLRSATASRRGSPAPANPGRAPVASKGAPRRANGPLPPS

various kinases [7] = biological target: various kinases (Homo sapiens, UniProt Q96SB4); settings: kinase SRPK1; ZLYTE
various kinases (Homo sapiens, UniProt Q96SB4), sequence (Q96SB4 whole entry): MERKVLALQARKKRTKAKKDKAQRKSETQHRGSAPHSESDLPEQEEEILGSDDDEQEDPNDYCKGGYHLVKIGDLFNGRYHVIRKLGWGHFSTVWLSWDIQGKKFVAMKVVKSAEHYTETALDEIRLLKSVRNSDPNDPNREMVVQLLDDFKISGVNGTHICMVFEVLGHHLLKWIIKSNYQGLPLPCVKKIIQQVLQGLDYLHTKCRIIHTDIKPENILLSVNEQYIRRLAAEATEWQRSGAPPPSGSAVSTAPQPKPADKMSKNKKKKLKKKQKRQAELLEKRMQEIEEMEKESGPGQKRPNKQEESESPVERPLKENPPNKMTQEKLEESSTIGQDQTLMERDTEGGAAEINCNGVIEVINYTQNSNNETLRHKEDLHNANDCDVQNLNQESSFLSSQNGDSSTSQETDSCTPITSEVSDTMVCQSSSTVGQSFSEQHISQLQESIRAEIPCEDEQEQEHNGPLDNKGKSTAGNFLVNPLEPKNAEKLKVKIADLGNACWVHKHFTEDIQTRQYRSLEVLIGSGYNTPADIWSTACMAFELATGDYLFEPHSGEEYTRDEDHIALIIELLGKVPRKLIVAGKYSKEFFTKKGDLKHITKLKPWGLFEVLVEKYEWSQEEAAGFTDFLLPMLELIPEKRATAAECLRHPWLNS

various kinases [8] = biological target: various kinases (Homo sapiens, UniProt P31749); settings: AKT1 (PKB alpha)
various kinases (Homo sapiens, UniProt P31749), sequence (P31749 whole entry): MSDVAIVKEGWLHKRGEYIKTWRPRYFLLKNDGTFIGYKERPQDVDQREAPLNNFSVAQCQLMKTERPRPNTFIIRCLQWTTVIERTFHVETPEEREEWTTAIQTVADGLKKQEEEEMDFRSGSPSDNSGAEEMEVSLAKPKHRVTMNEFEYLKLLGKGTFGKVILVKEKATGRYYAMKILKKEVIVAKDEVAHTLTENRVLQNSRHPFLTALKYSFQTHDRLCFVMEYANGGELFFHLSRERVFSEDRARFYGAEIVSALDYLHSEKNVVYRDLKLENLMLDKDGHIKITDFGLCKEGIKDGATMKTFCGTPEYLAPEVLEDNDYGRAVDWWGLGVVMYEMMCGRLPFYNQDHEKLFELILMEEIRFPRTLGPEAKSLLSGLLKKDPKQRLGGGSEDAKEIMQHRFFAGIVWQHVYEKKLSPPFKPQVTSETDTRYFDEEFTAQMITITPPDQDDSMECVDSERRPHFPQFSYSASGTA

various kinases [9] = biological target: various kinases (Homo sapiens, UniProt P49840); settings: GSK3A (GSK3 alpha)
various kinases [10] = biological target: various kinases (Homo sapiens, UniProt Q14680); settings: MELK
various kinases [11] = biological target: various kinases (Homo sapiens, UniProt P54764); settings: EPHA4
various kinases (Homo sapiens, UniProt P54764), sequence (P54764 20-986): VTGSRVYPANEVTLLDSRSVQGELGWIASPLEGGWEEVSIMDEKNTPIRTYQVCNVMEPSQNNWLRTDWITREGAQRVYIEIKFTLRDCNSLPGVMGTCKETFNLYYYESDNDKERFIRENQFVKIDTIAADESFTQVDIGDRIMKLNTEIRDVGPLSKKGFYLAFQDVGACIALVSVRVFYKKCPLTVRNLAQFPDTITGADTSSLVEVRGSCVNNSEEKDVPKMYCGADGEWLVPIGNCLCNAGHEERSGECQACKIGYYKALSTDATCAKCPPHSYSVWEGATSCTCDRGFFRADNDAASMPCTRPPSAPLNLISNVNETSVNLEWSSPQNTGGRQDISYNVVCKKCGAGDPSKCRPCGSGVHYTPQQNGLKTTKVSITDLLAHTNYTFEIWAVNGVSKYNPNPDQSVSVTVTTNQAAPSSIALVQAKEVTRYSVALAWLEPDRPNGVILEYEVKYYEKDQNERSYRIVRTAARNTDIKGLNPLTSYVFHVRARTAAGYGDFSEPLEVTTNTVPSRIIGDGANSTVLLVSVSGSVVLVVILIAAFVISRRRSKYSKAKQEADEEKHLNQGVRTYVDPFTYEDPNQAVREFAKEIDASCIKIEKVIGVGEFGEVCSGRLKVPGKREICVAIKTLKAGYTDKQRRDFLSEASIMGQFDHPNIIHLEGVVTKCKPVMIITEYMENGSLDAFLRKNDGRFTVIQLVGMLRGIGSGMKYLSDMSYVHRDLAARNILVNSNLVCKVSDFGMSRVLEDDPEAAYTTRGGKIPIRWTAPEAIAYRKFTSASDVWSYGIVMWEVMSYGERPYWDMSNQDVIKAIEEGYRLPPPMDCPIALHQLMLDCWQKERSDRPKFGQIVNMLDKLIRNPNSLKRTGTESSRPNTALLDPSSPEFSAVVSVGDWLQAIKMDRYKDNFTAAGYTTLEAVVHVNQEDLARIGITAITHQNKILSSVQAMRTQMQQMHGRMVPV

various kinases [12] = biological target: T1, various kinases (Homo sapiens, UniProt Q06418); settings: kinase TYRO3 (RSE); ZLYTE
T1 sequence (Q06418 41-890): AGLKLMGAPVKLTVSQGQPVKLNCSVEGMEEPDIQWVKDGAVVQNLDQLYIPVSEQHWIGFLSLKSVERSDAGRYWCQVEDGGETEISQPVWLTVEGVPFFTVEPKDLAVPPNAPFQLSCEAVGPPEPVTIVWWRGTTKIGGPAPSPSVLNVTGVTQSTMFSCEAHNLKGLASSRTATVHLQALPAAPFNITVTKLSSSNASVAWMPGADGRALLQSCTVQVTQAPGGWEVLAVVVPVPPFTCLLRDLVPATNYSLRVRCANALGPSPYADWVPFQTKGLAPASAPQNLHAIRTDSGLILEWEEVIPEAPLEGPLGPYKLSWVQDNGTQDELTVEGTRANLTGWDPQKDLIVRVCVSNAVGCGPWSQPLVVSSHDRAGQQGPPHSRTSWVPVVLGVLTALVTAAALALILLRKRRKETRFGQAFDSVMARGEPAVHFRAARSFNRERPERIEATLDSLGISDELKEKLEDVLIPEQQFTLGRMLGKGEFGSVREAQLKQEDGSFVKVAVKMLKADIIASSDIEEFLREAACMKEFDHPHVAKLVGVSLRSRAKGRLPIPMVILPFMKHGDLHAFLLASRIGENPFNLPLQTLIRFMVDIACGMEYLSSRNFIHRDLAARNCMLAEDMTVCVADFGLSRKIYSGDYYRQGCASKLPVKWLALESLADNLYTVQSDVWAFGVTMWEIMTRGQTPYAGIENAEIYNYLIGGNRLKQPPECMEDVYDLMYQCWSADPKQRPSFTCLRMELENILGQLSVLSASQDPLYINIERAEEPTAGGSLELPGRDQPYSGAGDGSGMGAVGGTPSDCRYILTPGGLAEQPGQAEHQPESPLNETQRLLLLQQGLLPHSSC

various kinases [13] = biological target: various kinases (Homo sapiens, UniProt P21802); settings: FGFR2
various kinases [14] = biological target: various kinases (Homo sapiens, UniProt P15056, V600E); settings: BRAF V599E
various kinases [15] = biological target: T2, various kinases (Homo sapiens, UniProt Q02156); settings: kinase PRKCE (PKC epsilon); ZLYTE
T2 sequence (Q02156 1-737): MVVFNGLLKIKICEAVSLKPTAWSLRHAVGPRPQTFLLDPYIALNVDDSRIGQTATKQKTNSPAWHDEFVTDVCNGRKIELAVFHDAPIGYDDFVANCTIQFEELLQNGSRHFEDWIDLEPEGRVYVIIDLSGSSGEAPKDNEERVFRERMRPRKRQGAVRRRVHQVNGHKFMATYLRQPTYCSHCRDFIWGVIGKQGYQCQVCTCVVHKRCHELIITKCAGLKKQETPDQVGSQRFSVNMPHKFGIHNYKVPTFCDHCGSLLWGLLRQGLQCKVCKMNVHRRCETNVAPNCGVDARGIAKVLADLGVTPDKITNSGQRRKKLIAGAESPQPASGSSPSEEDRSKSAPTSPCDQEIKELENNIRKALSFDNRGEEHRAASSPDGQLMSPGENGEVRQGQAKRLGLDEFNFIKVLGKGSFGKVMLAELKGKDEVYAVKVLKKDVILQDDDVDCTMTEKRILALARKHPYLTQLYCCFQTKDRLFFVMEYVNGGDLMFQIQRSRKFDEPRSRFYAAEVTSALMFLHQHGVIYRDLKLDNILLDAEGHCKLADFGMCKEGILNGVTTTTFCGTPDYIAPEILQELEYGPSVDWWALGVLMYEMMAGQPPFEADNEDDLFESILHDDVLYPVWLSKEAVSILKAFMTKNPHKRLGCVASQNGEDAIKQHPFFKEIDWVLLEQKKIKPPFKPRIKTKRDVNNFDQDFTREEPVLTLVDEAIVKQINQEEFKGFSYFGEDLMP

various kinases [16] = biological target: various kinases (Homo sapiens, UniProt P21802, N549H); settings: FGFR2 N549H

various kinases (Homo sapiens, UniProt P49674), sequence (P49674 whole entry): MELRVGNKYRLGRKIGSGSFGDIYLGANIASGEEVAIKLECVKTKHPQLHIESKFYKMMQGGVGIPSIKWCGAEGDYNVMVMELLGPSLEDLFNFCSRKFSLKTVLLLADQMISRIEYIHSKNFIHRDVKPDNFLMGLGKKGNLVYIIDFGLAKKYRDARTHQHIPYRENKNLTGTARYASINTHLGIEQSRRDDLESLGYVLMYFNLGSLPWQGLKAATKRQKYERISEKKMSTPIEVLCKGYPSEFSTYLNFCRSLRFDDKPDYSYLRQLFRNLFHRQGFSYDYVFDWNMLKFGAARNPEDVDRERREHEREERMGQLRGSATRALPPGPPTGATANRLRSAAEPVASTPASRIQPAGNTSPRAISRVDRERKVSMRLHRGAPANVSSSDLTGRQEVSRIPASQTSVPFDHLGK

COc1ccc2c(c1)[C@]1(C[C@H]1c1ccc3c(/C=C/c4ccc(CN5C[C@@H](C)O[C@@H](C)C5)cc4)n[nH]c3c1)C(=O)N2 [CFI-400945]
% Inhibition (various kinases [1]): 7% and 6% | % Inhibition (various kinases [2]): 2% and 3% | % Inhibition (various kinases [3]): 9% and 13% | % Inhibition (various kinases [4]): 7% and 4% | % Inhibition (various kinases [5]): 5% | % Inhibition Average (various kinases [6]): 0% | % Inhibition Duplicate #1 (various kinases [6]): -2% | % Inhibition Duplicate #2 (various kinases [6]): 3% | % Inhibition Average (various kinases [7]): 5% | % Inhibition Duplicate #1 (various kinases [7]): 6% | % Inhibition Duplicate #2 (various kinases [7]): 3% | % Inhibition (various kinases [8]): 4% and 3% | % Inhibition (various kinases [9]): 3% and 4% | % Inhibition (various kinases [10]): 9% and 18% | % Inhibition (various kinases [11]): 13% and 8% | % Inhibition Average (various kinases [12]): 10% | % Inhibition Duplicate #1 (various kinases [12]): 10% | % Inhibition Duplicate #2 (various kinases [12]): 11% | % Inhibition (various kinases [13]): 55% and 58% | % Inhibition (various kinases [14]): 12% | % Inhibition Average (various kinases [15]): -2% | % Inhibition Duplicate #1 (various kinases [15]): -5% | % Inhibition Duplicate #2 (various kinases [15]): 1% | % Inhibition (various kinases [16]): 12% and 18%
